Measured values reported in patent US20030220386A1, “Delta 1-pyrrolines for use as pesticides” (priority 2000, published 2003).
Like-named read-outs stand apart in the source and are kept apart here. Each block holds one compound with its values, some of them ahead of it.

How the values were obtained:
[1] = logP determination by HPLC (reversed-phase C 18), EEC Directive 79/831 Annex V.A8; assay type: physicochemical; conditions: 43° C.
Procedure: The logP values given in the tables and preparation examples above are determined in accordance with EEC Directive 79/831 Annex V.A8 by HPLC (High Performance Liquid Chromatography) using a reversed-phase column (C 18). Temperature: 43° C.
In the acidic range, the determination is carried out at pH 2.3 using the mobile phases 0.1% aqueous phosphoric acid and acetonitrile; linear gradient from 10% acetonitrile to 90% acetonitrile.
In the neutral range, the determination is carried out at pH 7.5 using the mobile phases 0.01 molar aqueous phosphate buffer solution and acetonitrile; linear gradient from 10% acetonitrile to 90% acetonitrile.
Calibration is carried out using unbranched alkan-2-ones (of 3 to 16 carbon atoms) with known logP values (determination of the logP values by the retention times using linear interpolation between two successive alkanones).

[2] = system: greenhouse red spider mite (Tetranychus urticae); assay: Tetranychus test (OP-resistant/dip treatment); assay type: in vivo; conditions: 100 ppm, bean plants dipped
Procedure: After the desired period of time, the activity in % is determined.

[3] = system: larvae of the armyworm (Spodoptera frugiperda); assay: Spodoptera frugiperda test; assay type: in vivo; conditions: 1000 ppm, cabbage leaves dipped
[4] = system: larvae of the mustard beetle (Phaedon cochleariae); assay: Phaedon larvae test; conditions: 1000 ppm, cabbage leaves dipped
[5] = system: caterpillars of the diamondback moth (Plutella xylostella); assay: Plutella test; assay type: in vivo; conditions: cabbage leaves dipped
Meloidogyne incognita = assay: Meloidogyne test; assay type: in vivo; conditions: 20 ppm, nematicidal action by formation of galls on lettuce roots
Procedure: Vessels are filled with sand, solution of active compound, Meloidogyne incognita egg/larvae suspension and lettuce seeds. The lettuce seeds germinate and the plants develop. On the roots, galls are formed.
After the desired period of time, the nematicidal action is determined in % by the formation of galls. 100% means that no galls were found; 0% means that the number of galls on the treated plants corresponds to that of the untreated control.

[6] = system: Heliothis virescens caterpillars; assay: Heliothis virescens test; assay type: in vivo; conditions: soya bean shoots dipped
[7] = system: Amblyomma hebraeum nymphs; assay: Test with polyphagous tick nymphs, dip treatment; assay type: in vivo; conditions: nymphs immersed for 1 minute; after 4 weeks
Procedure: (§1) 20 mg of active compound are dissolved in one ml of dimethyl sulphoxide. To prepare a suitable formulation, the solution of active compound is diluted with water to the concentration desired in each case.
10 nymphs which have sucked themselves full are immersed for 1 minute into the preparation of active compound to be tested. The animals are transferred to Petri dishes (Ø 9.5 cm) fitted with filter discs and covered. After 4 weeks of storage in a climatized room, the mortality is determined.
100% means that none of the animals has undergone normal ecdysis. 0% means that all animals have undergone ecdysis.

Lucilia cuprina larvae = assay: Blowfly larvae test/Development-inhibitory action; assay type: in vivo; conditions: 100 ppm; mortality of the larvae after 48 hours
Procedure: as §1
About 20 Lucilia cuprina larvae are introduced into a test tube which contains about 1 cm^3 of horsemeat and 0.5 ml of the preparation of active compound to be tested. The activity of the preparation of active compound is determined after 48 hours as the mortality of the larvae in %.
The test tubes are then transferred into a beaker whose bottom is covered with sand. After a further 12 days, the test tubes are removed and the pupae and flies are counted. The development-inhibitory action is stated as inhibition of hatching in % (ratio of pupae to flies that have hatched) after 1.5 times the development period of an untreated control.

[8] = system: peach aphid (Myzus persicae); assay: Myzus test; assay type: in vivo; conditions: cabbage leaves dipped
[9] = system: cotton aphid (Aphis gossypii); assay: Aphis gossypii test; assay type: in vivo; conditions: 200 ppm, cotton leaves dipped
[10] = system: larvae of the armyworm (Spodoptera exigua); assay: Spodoptera exigua test; assay type: in vivo; conditions: 1000 ppm, cabbage leaves dipped
[11] = pH 2.3, 0.1% aqueous phosphoric acid/acetonitrile, read-out: log P (pH 2.3)
[12] = reversed-phase C18 HPLC column, pH 2.3, 0.1% aqueous phosphoric acid/acetonitrile, read-out: log P (pH 2.3)

Compound: O=S(=O)(Oc1ccc(-c2ccc(C3CCC(c4c(F)cccc4F)=N3)cc2)cc1)C(F)(F)C(F)(F)C(F)(F)C(F)(F)F (stereo not drawn) [I-3, 4′-[5-(2,6-Difluorophenyl)-3,4-dihydro-2H-pyrrol-2-yl]-1,1′-biphenyl-4-yl 1,1,2,2,3,3,4,4,4-nonafluoro-1-butanesulphonate]
chromatographic logP [1, 11]: 5.57 | Kill rate in % after 7 days [2]: 98% | Kill rate in % after 6 days [3]: 100% | Kill rate in % after 7 days [4]: 100%

Compound: CC(C)(C)OC(=O)N1C(=O)CCC1c1ccc(-c2ccc(OS(=O)(=O)C(F)(F)C(F)(F)C(F)(F)C(F)(F)F)cc2)cc1 (stereo not drawn) [VII-3, tert-Butyl 2-(4′-{[(1,1,2,2,3,3,4,4,4-nonafluorobutyl)sulphonyl]oxy}-1,1′-biphenyl-4-yl)-5-oxo-1-pyrrolidinecarboxylate]
chromatographic logP [1, 11]: 5.44

chromatographic logP [1, 12]: 2.28
Compound: CN(C)S(=O)(=O)Oc1ccc(-c2ccccc2C2CCC(=O)N2)cc1 (single isomer, unassigned; isomer 2) [“ortho” isomer, 2′-(5-oxo-2-pyrrolidinyl)-1,1′-biphenyl-4-yl dimethylsulphamate]

chromatographic logP [1, 12]: 4.27
Compound: O=S(=O)(Oc1ccc(-c2ccc([C@H]3CCC(c4c(F)cccc4F)=N3)cc2)cc1)C(F)(F)F [I-5, 4′-[(2R)-5-(2,6-difluorophenyl)-3,4-dihydro-2H-pyrrol-2-yl]-1,1′-biphenyl-4-yl trifluoromethanesulphonate]
Kill rate in % after 6 days ([5]; 5 ppm): 100% | Kill rate in % after 14 days (Meloidogyne incognita): 100% | Kill rate in % after 6 days ([6]; 5 ppm): 100% | Kill rate in % after 6 days [3]: 100% | activity (mortality / no normal ecdysis) [7]: good activity | Action in % after 48 hours (Lucilia cuprina larvae): 100% | Kill rate in % after 7 days [4]: 100%

Compound: O=S(=O)(Oc1ccc(C2CCC(c3c(F)cccc3F)=N2)cc1)c1ccc(OC(F)(F)F)cc1 (stereo not drawn) [I-6, 4-[5-(2,6-difluorophenyl)-3,4-dihydro-2H-pyrrol-2-yl]phenyl 4-(trifluoromethoxy)benzenesulphonate]
chromatographic logP [1, 12]: 3.83 | Kill rate in % after 7 days [2]: 98% | Action in % after 48 hours (Lucilia cuprina larvae): 90% | Kill rate in % after 6 days ([8]; 1000 ppm): 95% | Kill rate in % after 7 days [4]: 90%

chromatographic logP [1, 12]: 3.31
Compound: CC(C)(C)OC(=O)N1C(=O)CCC1c1ccc(OS(=O)(=O)C(F)(F)F)cc1 (stereo not drawn) [VII-1, tert-butyl 2-oxo-5-(4-{[(trifluoromethyl)-sulphonyl]oxy}phenyl)-1-pyrrolidinecarboxylate]

Compound: CN(C)S(=O)(=O)Oc1ccc(-c2ccccc2)cc1 [XIII-2, 1,1′-biphenyl-4-yl dimethylsulphamate]
melting point: 105 to 107 °C | chromatographic logP [1, 11]: 3.51

chromatographic logP ([1]; reversed-phase C18 HPLC column, pH 7.5, 0.01 molar aqueous phosphate buffer/acetonitrile, read-out: log P (pH 7.5)): 4.46
Compound: CC1(C)OB(c2ccc(C3CCC(c4c(F)cccc4F)=N3)cc2)OC1(C)C (stereo not drawn) [V-1, 5-(2,6-difluorophenyl)-2-[4-(4,4,5,5-tetramethyl-1,3,2-dioxaborolan-2-yl)phenyl]-3,4-dihydro-2H-pyrrole]

Compound: O=S(=O)(Oc1ccc(C2CCC(c3c(F)cccc3F)=N2)cc1)C(F)(F)F (stereo not drawn) [I-1, 4-[5-(2,6-difluorophenyl)-3,4-dihydro-2H-pyrrol-2-yl]phenyl trifluoromethanesulphonate]
chromatographic logP [1, 12]: 3.49 | Kill rate in % after 6 days [9]: 95% | Kill rate in % after 7 days [2]: 95% | activity (mortality / no normal ecdysis) [7]: good activity | Action in % after 48 hours (Lucilia cuprina larvae): 100% | Kill rate in % after 6 days ([8]; 20 ppm): 95% | Kill rate in % after 7 days [4]: 100%

Compound: O=C1CCC(c2ccc(-c3ccc(OS(=O)(=O)C(F)(F)C(F)(F)C(F)(F)C(F)(F)F)cc3)cc2)N1 (stereo not drawn) [IX-b-2, 4′-(5-Oxo-2-pyrrolidinyl)-1,1′-biphenyl-4-yl 1,1,2,2,3,3,4,4,4-nonafluoro-1-butanesulphonate]
chromatographic logP [1, 11]: 4.21

chromatographic logP [1, 12]: 3.31
Compound: CC(C)(C)OC(=O)N1C(=O)CC[C@@H]1c1ccc(OS(=O)(=O)C(F)(F)F)cc1 [VII-2, tert-butyl 2-oxo-(5R)-5-(4-{[(trifluoromethyl)sulphonyl]oxy}phenyl)-1-pyrrolidinecarboxylate]

Compound: CC(C)(C)OC(=O)NC(CCC(=O)c1c(F)cccc1F)c1ccc(OS(=O)(=O)C(F)(F)F)cc1 (stereo not drawn) [II-1, 4-[1-[(tert-butoxycarbonyl)amino]-4-(2,6-difluorophenyl)-4-oxobutyl]phenyl trifluoromethanesulphonate]
chromatographic logP [1, 11]: 4.38

Compound: O=S(=O)(Oc1ccc(-c2ccccc2)cc1)C(F)(F)C(F)(F)C(F)(F)C(F)(F)F [XIII-1, 1,1′-biphenyl-4-yl 1,1,2,2,3,3,4,4,4-nonafluoro-1-butanesulphonate]
chromatographic logP [1, 11]: 5.81

chromatographic logP [1, 12]: 2.23
Compound: CN(C)S(=O)(=O)Oc1ccc(-c2ccc(C3CCC(=O)N3)cc2)cc1 (stereo not drawn) [IX-b-1, 4′-(5-oxo-2-pyrrolidinyl)-1,1′-biphenyl-4-yl dimethylsulphamate]

Compound: CC(C)(C)OC(=O)N[C@H](CCC(=O)c1c(F)cccc1F)c1ccc(OS(=O)(=O)C(F)(F)F)cc1 [II-2, 4-[(1R)-1-[(tert-Butoxycarbonyl)amino]-4-(2,6-difluorophenyl)-4-oxobutyl]phenyl trifluoromethanesulphonate]
chromatographic logP [1, 11]: 4.37

chromatographic logP [1, 12]: 3.06
Compound: CN(C)S(=O)(=O)Oc1ccc(-c2ccc(C3CCC(c4c(F)cccc4F)=N3)cc2)cc1 (stereo not drawn) [I-4, 4′-[5-(2,6-Difluorophenyl)-3,4-dihydro-2H-pyrrol-2-yl]-1,1′-biphenyl-4-yl dimethylsulphamate]
Kill rate in % after 6 days [3]: 100% | Kill rate in % after 7 days [4]: 100%

chromatographic logP [1, 12]: 4.25
Compound: CN(C)S(=O)(=O)Oc1ccc(-c2ccc(C(CCC(=O)c3c(F)cccc3F)NC(=O)OC(C)(C)C)cc2)cc1 (stereo not drawn) [II-4, tert-Butyl 4-(2,6-difluorophenyl)-1-(4′-{[(dimethylamino)sulphonyl]oxy}-1,1′-biphenyl-4-yl)-4-oxobutylcarbamate]

Compound: O=S(=O)(Oc1ccc(-c2ccc(C3CCC(c4c(F)cccc4F)=N3)cc2)cc1)C(F)(F)F (stereo not drawn) [I-7, 4′-[5-(2,6-difluorophenyl)-3,4-dihydro-2H-pyrrol-2-yl]-1,1′-biphenyl-4-yl trifluoromethanesulphonate]
Kill rate in % after 6 days ([5]; 1000 ppm): 100% | chromatographic logP [1, 12]: 4.15 | Kill rate in % after 6 days ([6]; 1000 ppm): 100% | Kill rate in % after 6 days [10]: 100% | Kill rate in % after 7 days [2]: 98% | Kill rate in % after 6 days [3]: 100% | activity (mortality / no normal ecdysis) [7]: good activity | Action in % after 48 hours (Lucilia cuprina larvae): 100% | Kill rate in % after 7 days [4]: 100%

chromatographic logP [1, 12]: 3.31
Compound: CN(C)S(=O)(=O)Oc1ccc(-c2ccc(C3CCC(=O)N3C(=O)OC(C)(C)C)cc2)cc1 (stereo not drawn) [VII-4, tert-Butyl 2-(4′-{[(dimethylamino)sulphonyl]oxy}-1,1′-biphenyl-4-yl)-5-oxo-1-pyrrolidinecarboxylate]

Compound: CC(C)(C)OC(=O)NC(CCC(=O)c1c(F)cccc1F)c1ccc(-c2ccc(OS(=O)(=O)C(F)(F)C(F)(F)C(F)(F)C(F)(F)F)cc2)cc1 (stereo not drawn) [II-3, 4′-[1-[(tert-Butoxycarbonyl)amino]-4-(2,6-difluorophenyl)-4-oxobutyl]-1,1′-biphenyl-4-yl 1,1,2,2,3,3,4,4,4-nonafluoro-1-butanesulphonate]
chromatographic logP [1, 11]: 6.05
